One may read the IC50 as the concentration at which inhibition is half-maximal. In general, EC50 refers to the concentration that produces a half-maximal response. What is called EC90 is the concentration needed for an effect of 90%. A word on the IC90: it is the point of the concentration-response curve where the effect stands at 90%.

The source of these data is paper PMC7114261 (Antiviral Research, 2006).

The test system of data set [1] is SARS-CoV, strain Urbani. In words: microbe, parasite or virus in culture. Format: cell-based. Conditions: Severe acute respiratory syndrome coronavirus; for IC50: Vero 76, read-out: NR assay IC50.
In another data set the test system is SARS-CoV (Urbani). The arrangement: species or system BALB/c mice. The conditions noted are these: mouse, in vivo.
A short description of the next data set: in vivo. Conditions: BALB/c, mouse.
The subject of data set [2] is SARS-CoV, strain Urbani. In words: microbe, parasite or virus in culture. Type of data set: cell-based, Severe acute respiratory syndrome coronavirus.
Data set [3] concerns cytokines in lung homogenates. Details: species or system BALB/c mice. Conditions: mouse, in vivo.
A further data set relates to Vero 76 cells. The conditions noted are these: African green monkey.
The test system of the next data set is SARS-CoV. The conditions noted are these: cited from earlier work.
A short description of data set [4]: in vitro. The conditions noted are these: African green monkey.
Data set [5] in a line: in vitro. The conditions noted are these: African green monkey, NR assay CC50.
Where [6] appears, read: Severe acute respiratory syndrome coronavirus, Vero 76, read-out: Virus yield reduction assay IC90.

Structures are written as SMILES. Several values for one entry are separate records, joined by “and”; a condition that tells them apart may be missing. Identical values can stand only once. Like-named read-outs stand apart in the source and are kept apart here. Where only a bound is given, the exact number is not on record here.

In the case of `NC(=O)c1ncn([C@@H]2O[C@H](CO)[C@@H](O)[C@H]2O)c1O` [Mizoribine, mizoribine], the IC50 in the data set with SARS-CoV, strain Urbani [1] is above 40 µM. Moreover, in the data set on SARS-CoV (Urbani), the “Virus titer ± S.D., Day 3” value is 4.9 ± 0.3 log10 CCID50/g and 4.7 ± 0.6 log10 CCID50/g; the “Virus titer ± S.D., Day 7” value came to 0 log10 CCID50/g. In addition, the MTD in the data set “in vivo” was 25 mg/kg.
On to `N=C(N)c1ncn([C@@H]2O[C@H](CO)[C@@H](O)[C@H]2O)n1` [Viramidine, viramidine], for which, in the data set with SARS-CoV, strain Urbani [1], the IC50 is above 410 µM.
For the compound `NC(=O)c1ncn([C@@H]2O[C@H](CO)[C@@H](O)[C@H]2O)n1` [Ribavirin, ribavirin], the EC50 in the data set with SARS-CoV, strain Urbani [1] (Vero 76, read-out: EC50 by neutral red uptake assay, n = 4) came to 270 ± 50 µM. Besides, the IC50 in the data set on SARS-CoV, strain Urbani [1] was 320 µM; with SARS-CoV, 2 to 60 µg/mL. The 90% effect concentration (EC90) with SARS-CoV, strain Urbani [2] (Severe acute respiratory syndrome coronavirus, Caco-2, read-out: EC90 by virus yield reduction assay) was 4100 µM; in the data set on SARS-CoV, strain Urbani [2] (Severe acute respiratory syndrome coronavirus, MA104, read-out: EC90 by virus yield reduction assay), 225 µM. The IC90 in the data set on SARS-CoV, strain Urbani [2] (setting [6]) came out at 560 µM; with SARS-CoV, strain Urbani [2] (read-out: Virus yield reduction assay IC90) it was 590 µM. The “Virus in the lungs of mice sacrificed at day 7” value in the data set on SARS-CoV (Urbani) is “virus was not detected”. The Virus titer came out at 0 log10 CCID50/g with SARS-CoV (Urbani) (75 mg/kg) and 0 log10 CCID50/g in the data set with SARS-CoV (Urbani) (ip, 20 mg/kg). Moreover, the “GM-CSF level in lung homogenate” value in [3] is 7.9 ± 1.9 pg/mL and 10.7 ± 0.9 pg/mL and 7.9 ± 0.5 pg/mL and 15.7 ± 4.2 pg/mL. For the same compound, the “IL-4 level in lung homogenate” value in data set [3] was 5.9 ± 3.5 pg/mL and 6.3 ± 0.3 pg/mL and 4.9 ± 0.9 pg/mL and 7.3 ± 0.5 pg/mL. In addition, the “IL-5 level in lung homogenate” value in data set [3] was 25.6 ± 2.0 pg/mL and 34.2 ± 2.1 pg/mL and 19.8 ± 1.7 pg/mL and 33.4 ± 0.4 pg/mL. For the same compound, in data set [3], the “IL-9 level in lung homogenate” value was 134.2 ± 39.3 pg/mL and 140.9 ± 6.7 pg/mL and 101.5 ± 25.7 pg/mL and 126.3 ± 67.6 pg/mL. For the same compound, the “average CC50” value in the data set with Vero 76 cells is around 1685 µg/mL. The CC50 in the data set “in vitro [4]” worked out at 283 µM; in “in vitro [5]”, 402 µM.
`COc1c(C)c2c(c(O)c1C/C=C(\C)CCC(=O)O)C(=O)OC2` [MPA, mycophenolic acid]: the IC50 in the data set on SARS-CoV, strain Urbani [1] was above 30 µM. Moreover, in the data set on SARS-CoV (Urbani), the “Virus titer ± S.D., Day 3” value was 5.5 ± 0.2 log10 CCID50/g and 5.3 ± 0.5 log10 CCID50/g; the “Virus titer ± S.D., Day 7” value came to 0 log10 CCID50/g. This compound showed an MTD in “in vivo” of 75 mg/kg.
In the case of `C#Cc1c(C(N)=O)ncn1[C@@H]1O[C@H](CO)[C@@H](O)[C@H]1O` [EICAR, 5-ethynyl-1-β-D-ribofuranosylimidazole-4-carboxamide], the IC50 in the data set on SARS-CoV, strain Urbani [1] was 28 µM. Further, the IC90 with SARS-CoV, strain Urbani [2] (setting [6]) was above 40 µM. Further, in the data set on SARS-CoV (Urbani), the “Virus titer ± S.D., Day 3” value was 5.5 ± 0.5 log10 CCID50/g and 5.3 ± 0.3 log10 CCID50/g; the “Virus titer ± S.D., Day 7” value turned out to be 0 log10 CCID50/g. This compound returned an MTD in the data set “in vivo” of 75 mg/kg.
For the compound `NC(=O)c1ncn([C@@H]2O[C@H](COP(=O)(O)O)[C@@H](O)[C@H]2O)n1` [Ribavirin monophosphate], in the data set on SARS-CoV, strain Urbani [1], the IC50 is above 30 µM.
